This passage reports melting point results from a melting point compilation (Tetko et al.; mined from patent text by program, amines drawn as free bases though some values may be those of a salt).

SMILES strings stand for the structures. Residues, ends and D or L forms follow the SMILES beside them. *: point of attachment. Boc = CC(C)(C)OC(=O)*

One may read the melting point as the temperature of the solid-liquid transition. The molecule `CC(=O)Nc1cc(N)cc([N+](=O)[O-])c1` gave a melting point of 204 to 205 °C.
Then `COCOCc1nc(-c2ccccc2)oc1CO`, with 70 to 71 °C.
In the case of `CN(C)CCCCCCc1ccc(NC=NO)cc1`, the melting point lay in the range of 96 to 97 °C.
The molecule `N#CN=C(N)Cc1ccc2c(c1)Nc1nccnc1S2` yielded a melting point of 218 to 219 °C.
In the case of `O=[N+]([O-])c1cc(Br)ccc1Cl` it was 65 to 67 °C; in that of `Cn1nnnc1SCc1ccccc1`, 48.5 to 49.5 °C.
In the case of `O=C(NCc1ccccc1)n1c(=O)sc2c(Cl)cccc21` it was 106 °C; in that of `NC(=O)N1C(=O)C(C(=O)c2cccs2)c2cc(Cl)ncc21` (stereo unspecified), 252 °C; in that of `N#CC1=C2C=CC=c3ccccc3=C2CC=C1`, 109 to 111 °C.
Then `CC1NC2=NCCN2C1c1ccccc1` (stereo unspecified), with 179 °C.
The molecule `O=C(Nc1ccccn1)c1c(C(F)(F)F)nc(-c2ccccc2)c(-c2ccccc2)c1O` registered a melting point of 208 to 210 °C.
Then `Cc1cc(Cl)cc(COc2cccc(OCc3ccc4cc(F)ccc4n3)c2)c1OCC(=O)O`, with 140 to 141 °C; and `Nc1cc(C(F)(F)F)c(-c2cc(Br)c(N)cc2C(F)(F)F)cc1Br`, with 154 to 157 °C.
In the case of `O=C(c1cccc(Cc2ccc(=O)[nH]n2)c1)c1c(Cl)cc(Cl)cc1Cl` it was 149 to 151 °C; in that of `COCCOCCOC(=O)C#CC(=O)/C=C/c1ccc(OC)cc1`, 41 to 42 °C; in that of `CC1N=C(NN2CCCCC2)NN=C1c1ccccc1` (stereo unspecified), 188 to 190 °C.
`Cc1nc2c(N)nc3ccccc3c2n1CCCNC(=O)OC(C)(C)C` registered a melting point of 112 to 115 °C.
In the case of `CCC(O)CC(O)CC` (stereo unspecified) it was 60 to 65 °C; in that of `CC(C)c1nn(-c2ccc(Br)cn2)cc1CCCO`, 96 to 97 °C; in that of `O=C1CCC(N2C(=O)c3cccc(Nc4ccc5c(c4)OCO5)c3C2=O)C(=O)N1` (stereo unspecified), above 260 °C.
In the case of `CCOC(=O)COc1cccc(-n2nc(-c3ccc(F)cc3)c3cccnc32)c1` it was 130 to 131 °C; in that of `O=C(O)CCCCN1CCC(C(O)(c2ccc(F)cc2)c2ccc(F)cc2)CC1`, 105 to 107 °C; in that of `CCOC(=O)c1[nH]c(CC)nc1C(C)C`, 177 to 178 °C.
In the case of `Cc1cc(CN2CCOCC2)cc2c1Cc1c(-c3ccsc3)n[nH]c1-2` it was 232 to 233 °C; in that of `CCc1cccc(CNC[C@@H](O)[C@H](Cc2cc(F)cc(F)c2)NC(=O)c2ccc(CS(C)(=O)=O)s2)c1`, 128 to 131 °C.
The molecule `O=C1NC(=O)c2ccc(I)cc2/C1=C/Nc1ccc(CN2CCCCC2)cc1` had a melting point of 202 to 203 °C.
Consider `CCOc1ccnc(F)c1N`, for which the melting point was in the range of 76 to 77 °C.
In the case of `O=C(O)CSc1cc(=Nc2ccccc2)ss1` it was 147 °C; in that of `O=C(O)c1ccccc1Nc1ccnn1-c1ccccn1`, 216 to 218 °C.
In the case of `CC(C)Cc1nc(-c2cccnc2)c[nH]c1=O` it was 195 to 196 °C; in that of `Cc1oc(-c2ccccc2)nc1CCOc1ccc(CC(C)(C)C(=O)O)cc1`, 133 to 134 °C; in that of `CCOc1nc(N)n2nc(-c3ccco3)nc2n1`, 211 to 213 °C.
In turn, `Cc1ccc2c(c1)c(=O)[nH]c(=O)n2CCCCN1CCC(OC(c2ccccc2)c2ccccc2)CC1` gave a melting point of 180 to 182 °C.
In turn, `NC(=O)CC(=O)NCCCOc1cccc(CN2CCCCC2)c1` gave a melting point of 85.3 to 88.3 °C.
Then `COc1ccc(C(=O)c2sccc2O)cc1`, with 86 to 87 °C.
Then `O=C(NCC1CCCCC1)[C@@H]1CCCN(c2cccc3c2C(=O)N(Cc2ccncc2)C3=O)C1`, with 172 to 173 °C.
The molecule `CSCCC(NC(=O)C(CC(C)C)NC(=O)CNC(=O)C(NC(=O)C(Cc1ccccc1)NC(=O)C(C)NC(=O)OC(C)(C)C)C(C)C)C(=O)O` (stereo unspecified) (Boc-AFVGLM-OH; configuration not given here) returned a melting point of 252 to 281 °C.
In the case of `CC(CSc1nc(-c2ccc(F)cc2)c(-c2ccc(F)cc2)[nH]1)Sc1nc(-c2ccc(F)cc2)c(-c2ccc(F)cc2)[nH]1` (stereo unspecified) it was 243 to 245 °C; in that of `COCN1C(C)=C(C(=O)O)[C@H](c2cccc([N+](=O)[O-])c2)C(C(=O)OCOC(=O)C(C)(C)C)=C1C`, 84 to 85 °C.
`CCOC(=O)C1(Cc2cccnc2)CCCN(C(=O)c2ccc(Nc3nccc(Nc4ccc(F)cc4)n3)cc2)C1` (stereo unspecified): the melting point turned out to be 119 °C.
In the case of `Cn1ccc(-c2[nH]nc3c2C(=O)c2c(NC(N)=O)cccc2-3)c1` it was above 300 °C.
In the case of `Nc1cccc2c3c([nH]c12)C(=O)CCC3` it was 233 to 234 °C; in that of `CCOC(=O)c1sc2c(Br)cccc2c1C`, 67 to 70 °C.
Then `CNC(=S)NNc1ccnc2c(NC(=O)c3c(Cl)cccc3Cl)cccc12`, with above 258 °C; and `OCc1cn(Cc2ccccc2)c(-c2ccc(OCc3ccccc3)cc2)n1`, with 129 to 131 °C.
In turn, `Oc1c2c(c(O)c3ccccc13)CCCC2` yielded a melting point of 210 to 212 °C.
In the case of `COc1ccc(Br)c(/C=C/c2cc(/C=C/c3ccc4cc[nH]c4c3)[nH]n2)c1` it was 103 to 109 °C; in that of `Cc1ncc2c(n1)N(CC(O)CO)C(=O)CO2` (stereo unspecified), 70 to 72 °C.
Consider `COc1cccc2c1SCC(=O)C2`, for which the melting point worked out at 60 °C.
In the case of `CN1CCc2c([nH]c3ccc(NS(=O)(=O)c4ccc(N)cc4)cc23)C1` it was 236 to 237 °C; in that of `Cc1nc(C)c(Cl)c(NCc2nccc(SCCOCCn3c([N+](=O)[O-])cnc3C)c2C)n1`, 160 to 163 °C.
In the case of `CCOC(=O)c1cnn(C)c1C(=O)Nc1ccn2nc(C(C)C)nc2c1` it was 175 to 177 °C; in that of `CC1=C(CNC(=O)NCc2ccccc2)c2cc(F)ccc2/C1=C\c1ccc(S(C)(=O)=O)cc1`, 204 °C; in that of `COc1ccc(-c2[nH]nc3c2C(=O)c2c(NC(=O)CN4CCOCC4)cccc2-3)cc1`, 295 °C.
Then `c1ccc(-c2cc3ccccc3s2)cc1`, with 171 to 172 °C; and `Cc1ccc(S(=O)(=O)C(CC#Cc2ccc(Cl)cc2)C(=O)O)cc1` (stereo unspecified), with 154 to 157 °C.
Turning to `CC(C)(C#N)c1ccc(-n2c(-c3cc(-c4cnc5ccccc5c4)ccn3)c[nH]c2=O)cc1`, the melting point was 271 °C.
As to `O=C(Nc1cccc(Nc2ccc3c(c2)NC(=O)C3=Cc2ccc[nH]2)c1)Nc1cc(F)c(F)cc1F`, the melting point lay in the range of 224 to 226 °C.
In the case of `O=[N+]([O-])c1ccc(N2C[C@@H]3C[C@H]2CS3)cc1F` it was 97 to 98 °C; in that of `CCCc1nc(C)n2cnnc2c1Cc1ccc(-c2ccccc2C#N)cc1`, 153 °C; in that of `Cc1cc(C(=O)Nc2ccc3cc(CN4CCCC4)cnc3c2C)ccc1-c1ccc(F)cc1`, 200 to 202 °C.
Then `CCOC(=O)C(=O)Nc1sc(-c2ccccc2)cc1[N+](=O)[O-]`, with 139 to 144 °C.
Molecule `CCCCc1c(C(C)C)nc(C(C)C)c(C(C)O)c1-c1ccc(F)cc1` (stereo unspecified) came in with a melting point of 103 to 104 °C.
Then `O=C(CCC1CCNCC1)c1cc2c3c(c1)CCN3C(=O)CC2`, with 114 to 115 °C.
Take `CCOCc1nc2c(N)nc3cc(N4CCOCC4)ccc3c2n1CCCOC(C)C`: the melting point lay in the range of 161 to 162 °C.
Then `Cc1nc(N2CCN(Cc3ccc(OC(F)(F)F)cc3)C2=O)sc1C(=O)NCCc1ccccc1`, with 184 to 185 °C; and `CC1(C)N=C(N)N=C(N)N1OCc1cccc2ccccc12`, with 170 to 171 °C.
Then `NS(=O)(=O)c1cc2c(s1)SC(CC(=O)O)C(=O)N2` (stereo unspecified), with 240 °C; and `Cc1ccc(S(=O)(=O)Oc2cccnc2)cc1`, with 76 to 78 °C; and `COC(=O)c1ccc(Cn2cnc3ccccc32)cc1`, with 94 to 95 °C.
`Cn1c(C(=O)OC(C)(C)C)c(O)c2cc(OCc3ccccc3)ccc21`: the melting point lay within 101 to 103 °C.
Then `C1=Cc2cc(/C=C/c3ccc4c(c3)C=C4)ccc21`, with 132 °C.
In the case of `N#Cc1ccc(-c2ccc(-c3ccc(Br)o3)o2)nc1` it was 143 to 145 °C; in that of `Nc1ncnc2ncn(COCCO)c12`, 122 to 123 °C.
In the case of `Nc1cc(F)c(F)cc1C(=O)NOCc1ccccc1` it was 125 to 126 °C; in that of `CCCCc1nc2c(N)nc3ccccc3c2n1CCCNC(=O)NC1CCCCC1`, 200 to 201 °C; in that of `O=P1(O)Oc2c(-c3ccccc3)cc(Cl)cc2-c2ccccc21`, 260 °C.
`CC1Cc2c(N3CCC(NC(=O)OC(C)(C)C)C3)c(F)cc3c(=O)[nH]c(=O)n1c23` (stereo unspecified) registered a melting point of 203 to 205 °C.
In the case of `Cc1cc2cc(C3(O)CCN(C)CC3)ccc2o1` it was 118 to 120 °C.
Then `CCCCOC(=O)c1cccc2nc(CCCC)n(Cc3ccc(-c4ccccc4-c4nnn[nH]4)cc3)c12`, with 192 to 193 °C.
In the case of `OCc1ccc(C=Cc2csc3ccccc23)s1` it was 68 to 70 °C.
Consider `Cn1ncnc1COc1nc2c(-c3ccccc3)nncc2cc1-c1ccccc1`, for which the melting point fell in the range of 222 to 223 °C.
In the case of `COc1ccccc1N(CN1C(=O)CN(C)C1=O)C(C)=O` it was 169 to 172 °C; in that of `CCc1cc2c(cc1Cl)=CCc1cccnc1C=2C1CCN(C(=O)Cc2cccnc2)CC1`, 67.2 to 69.8 °C; in that of `CCCc1nc(C)c2nnc3cc(OC)ccc3n12`, 159 to 162 °C.
In the case of `CC(=O)Oc1cc(O)c(Cl)cn1` it was 270 to 272 °C.
Then `FC(F)(F)Oc1ccc(-c2coc3ccc(-c4nnc(N5CCNCC5)o4)cc23)cc1`, with 138 to 140 °C; and `CSC(SC)=C(C#N)C(=O)N1CCOCC1`, with 55 to 57 °C.
Turning to `O=C1c2ccccc2C(=O)N1c1ccc(N2C(=O)c3ccccc3C2=O)c(O)c1`, the melting point was above 300 °C.
In the case of `CCOC(=O)C(C=O)Cc1ccc(OC)nc1` (stereo unspecified), the melting point lay within 91.5 to 94 °C.
In the case of `O=C(OC1CCCCCC1)c1ncn2c1[C@@H]1CCCN1C(=O)c1c(Cl)cccc1-2` it was 179 to 180 °C.
